Results on five compounds are retold here after patent US9216954B2, “Serine racemase inhibitor” (National University Corporation University of Toyama, priority 2012, dated 2015).

In this test the target is T1, Recombinant SR (serine racemase) (Homo sapiens, UniProt Q9GZT4).
T1 construct: made in house; host or cells: Escherichia coli
T1 sequence (Q9GZT4 1-340): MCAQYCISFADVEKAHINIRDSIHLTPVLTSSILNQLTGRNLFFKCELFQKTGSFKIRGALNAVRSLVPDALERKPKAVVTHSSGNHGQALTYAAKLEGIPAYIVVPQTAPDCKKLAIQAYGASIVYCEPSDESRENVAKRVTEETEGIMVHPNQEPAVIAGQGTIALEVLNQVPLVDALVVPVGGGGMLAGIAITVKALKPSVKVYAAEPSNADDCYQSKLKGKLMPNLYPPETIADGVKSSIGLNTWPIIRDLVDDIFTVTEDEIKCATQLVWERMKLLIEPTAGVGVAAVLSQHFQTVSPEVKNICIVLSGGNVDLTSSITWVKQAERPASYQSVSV
Briefly: Serine racemase (SR) enzyme activity measurement: L-serine racemization reaction, D-serine quantified via Dsd1/DNP colorimetry. The format is biochemical. The following applies: compound 0.3 mM (footnote ‡); value in parentheses = malonic acid (control) in the same run. Here is the method: (1) L-Serine Racemization Reaction
(2) Quantitative Determination of D-serine
D-serine was quantitatively determined in accordance with the method proposed by Ito et al. (Analytical Biochemistry, 371: 167-172, 2007).
A solution including 25 μL of 100 mM HEPES (pH: 8.0), 20 μM PLP, and 2 μg of recombinant D-serine dehydratase 1 (Dsd1) was added to 25 μL of the reaction mixture (see (1)), and the mixture was reacted at 30° C. for 30 minutes.
In order to measure pyruvic acid produced from D-serine by Dsd1 using a colorimetric reaction, 50 μL of 0.05% DNP/2M HCl was added to 50 μL of the reaction solution, and the mixture was reacted at 30° C. for 5 minutes. After the addition of 100 μL of ethanol and 125 μL of 10 M NaOH, the mixture was sufficiently mixed, and reacted at room temperature for 10 minutes, and the absorbance at a wavelength of 515 nm was measured using a spectrophotometer.
For `Cc1ccc(/C=C/S(=O)(=O)Nc2ccccc2NC(=O)Nc2ccc(Cl)c(Cl)c2)cc1` [ED-37, 2-p-Tolyl-ethenesulfonic acid {2-[3-(3,4-dichloro-phenyl)-ureido]phenyl}-amide], the “% human (0. 3 mM)” value came to 48%. In the case of `COc1ccc(S(=O)(=O)Nc2ccccc2NC(=O)Nc2ccc(Cl)c(Cl)c2)cc1` [ED-31, N-{2-[3-(3,4-Dichloro-phenyl)-ureido]-phenyl}-4-methoxy-benzenesulfonamide], the “% human (0. 3 mM)” value stood at 58%. Regarding `O=C(Nc1ccc(Cl)c(Cl)c1)Nc1ccccc1NS(=O)(=O)c1ccc(Br)cc1` [ED-27, 4-Bromo-N-{2-[3-(3,4-dichloro-phenyl)-ureido]-phenyl}-benzenesulfonamide], the “% human (0. 3 mM)” value is 48%. Next, `O=C(O)CC(=O)O` [malonic acid, reference compound]: 51%; `O=C(Nc1ccc(Cl)cc1Cl)Nc1ccccc1NS(=O)(=O)c1ccc(Cl)cc1` [ED-36, 4-Chloro-N-{2-[3-(2,4-dichloro-phenyl)-ureido]-phenyl}-benzenesulfonamide]: 46%.
